Test results: ChEMBL document CHEMBL5726263, “Pyrazolopyrimidinyl inhibitors of ubiquitin-activating enzyme” (2017)

Molecular target: Ubiquitin-conjugating enzyme E2 E1 (Homo sapiens, UniProt P51965)
Experiment: HTRF Assay : The UAE enzymatic reaction totals 50 μL and contains 50 mmol HEPES (pH 7.5), 0.05% BSA, 2.5 mM MgCl2, 0.1 uM ATP, 8 nM GST-Ubc-2, 35 nM flag-ubiquitin, 1 nM recombinant human UAE or mouse UAE. Compounds for this hUAE 1050 assay are tested at 10 point 3-fold dilution. The top concentration for this assay is 1 μM. Each compound is ordered in duplicate on the same plate.

Chain of Ubiquitin-conjugating enzyme E2 E1 (P51965 whole entry): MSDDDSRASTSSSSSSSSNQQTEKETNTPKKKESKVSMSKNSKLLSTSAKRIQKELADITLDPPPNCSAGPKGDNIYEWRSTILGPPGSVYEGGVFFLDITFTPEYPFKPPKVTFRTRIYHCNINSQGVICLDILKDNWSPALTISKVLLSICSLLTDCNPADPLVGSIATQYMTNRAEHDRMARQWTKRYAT

`NS(=O)(=O)OC[C@H]1C[C@@H](Nc2ccnc3cc(-c4cccc5ccccc45)nn23)[C@H](O)[C@@H]1O` (racemic) was tested, and the IC50 was < 10 nM.
